Results from US20100040703A1, “USE OF NITRIC OXIDE” (priority 2008, published 2010).

Test system: Influenza A/Victoria/H3N2
Test: Plaque assay on MDCK cells after exposure of virions to 160 ppm NO gas
Type: cell-based
Settings: for plaques (infectious virus titre): 160 ppm gNO

Substance: Nitric oxide [NO-gas]
- plaques (infectious virus titre) (exposure 0 mins): 250 ± 14 pfu/ml
- plaques (infectious virus titre) (exposure 60 mins): 50 ± 11 pfu/ml
- plaques (infectious virus titre) (exposure 120 mins): 43 ± 10 pfu/ml
- plaques (infectious virus titre) (exposure 180 mins): 29 ± 14 pfu/ml
- less transmissible into host cells than the control group (virions exposed to 160 ppm NO before incubation with host cells): at least 80%
